Data set [1] relates to C57BL/6 male mice on CDAHFD diet. Nature of the data set: In vivo NASH model, treatment phase (8 weeks CDAHFD, then 2 weeks daily gavage). Particulars: for Fatty deposits / fat globules in liver, H&E staining: 200 mg/kg/day. The procedure: Liver Inflammatory Cells. CD11b stains macrophages and microglia. CD11b staining of liver tissue was taken after 10 weeks of CDAHFD in three groups of mice. […] At 8 weeks, treatment group 2 (“C2”) mice started gavage feeding with D2-Cystamine at 200 mg/kg/day once daily gavage, and treatment group 3 (“C3”) mice received D4-Cystamine at 200 mg/kg/day by once daily gavage.
(§1) In vivo NASH Models. NASH models from normal C57BL/6 male mice on CDAHFD diet (choline deficient, L-amino acid defined, high fat diet with restricted amount of methionine) were used. Two deuterated cystamine molecules were tested:
(§2) Two phase study was performed: (1) A prevention and (2) a treatment phase. 48 Mice were separated into nine groups of mice as described below. Histology at end of each study was performed looking for specific features of NASH (steatohepatitis, ballooning, fibrosis). The primary endpoint was plasma ALT measurement. Gene expression studies for fibrosis, inflammation were also performed.
Prevention Phase. Group 1: Control mice on CDAHFD for 8 weeks. Blood drawn at 0, 4, and 8 weeks. Group 2: Mice on CDAHFD plus D2 at 200 mg/kg/day for 8 weeks. Blood drawn at 0, 4, and 8 weeks. Group 3: Mice on CDAHFD plus D4 at 200 mg/kg/day for 8 weeks. Blood drawn at 0, 4, and 8 weeks. Group 4: Control mice (n=4) continue on CDAHFD for 2 weeks. Blood at baseline and at 2 weeks. Liver histology at 2 weeks. Group 5: Mice (n=4) on CDAHFD for 2 weeks plus D2 at 200 mg/kg/day administered via daily gavage. Blood at 0 and 2 weeks and histology at 2 weeks. Group 6: Mice (n=4) on CDAHFD for 2 weeks plus D4 at 200 mg/kg/day administered via daily gavage. Blood at 0 and 2 weeks and histology at 2 weeks.
Treatment Study Results. Groups 4, 5 and 6 mice received 8 weeks of CDAHDF diet before beginning treatment with deuterated compounds of the disclosure. During the treatment phase the mice continued to receive CDAHDF diet. Four mice were set in each group: control (C1) not receiving any drug; treatment (C2) receiving 200 mg/kg of cystamine D2 by once daily gavage; and treatment (C3) receiving 200 mg/kg cystamine D4 by once daily gavage.

The nature of data set [2]: Pharmacokinetics of cystamine and D4-cystamine in rats (monomer measured in plasma). The format is in vivo, Sprague Dawley rats. The procedure:
Pharmacokinetics of Cystamine in Rats.
In the experimental study 5 Sprague Dawley rats were used: 2 rats were used for control (non-deuterated cystamine) and 3 rats were used for the study compound (D4 cystamine).
Blood was sampled at 0, 20 min, 40 min, 1, 2, 4 and 6 hours (7 total samples per rat). Approximately 160 μl of whole blood was collected into an EDTA retro-orbital blood collection tube and briefly mixed to insure uniform mixing of EDTA. The blood was quickly transferred into a clean ependorf tube containing 40 μl of fresh 150 mM NEM, mixed and incubated at room temperature for 10 minutes. The Eppendorf tube was centrifuged at 3000 rmp for 5 minute sto pellet RBC and collect plasma into a fresh Eppendorf tube. The volume of the plasma was measured by pipette. Formic acid was added to the plasma to a concentration of 1% and mixed.

For data set [3], the system named is C57BL/6 male mice on CDAHFD diet. Nature of the data set: In vivo NASH model, prevention phase (drug in drinking water, 8 weeks). Particulars: about 200 mg/kg/day in drinking water, n=8 per group. As for the experimental part:
as §1, §2
Drug (D2 or D4) was administered in drinking water at a concentration to deliver animals about 200 mg/kg/day of drug. Daily weight. Volume of fluid drunk/day was also measured.
Prevention Phase. Group 1: Control mice on CDAHFD for 8 weeks. Blood drawn at 0, 4, and 8 weeks. Group 2: Mice on CDAHFD plus D2 at 200 mg/kg/day for 8 weeks. Blood drawn at 0, 4, and 8 weeks. Group 3: Mice on CDAHFD plus D4 at 200 mg/kg/day for 8 weeks. Blood drawn at 0, 4, and 8 weeks. Group 4: Control mice (n=4) continue on CDAHFD for 2 weeks. Blood at baseline and at 2 weeks. Liver histology at 2 weeks. Group 5: Mice (n=4) on CDAHFD for 2 weeks plus D2 at 200 mg/kg/day administered via daily gavage. Blood at 0 and 2 weeks and histology at 2 weeks. […]

For a further data set, the system named is Pooled human hepatocytes. Nature of the data set: Hepatocyte elimination (in vitro metabolic stability, percent parent remaining by LC/MS/MS). The format is in vitro ADME. Conditions: compared with other forms. The text has this:
In vitro experiments with isotopically enriched cystamine and cysteamine in hepatocytes.
The assessment of in vitro metabolic stability provides a means to measure the susceptibility of a test compound to biotransformation by the liver. While liver microsomes primarily assess cytochrome P450 system-mediated metabolism (phase I metabolism), hepatocytes represent a complete, undisrupted metabolic system, including cofactors, and thus assess both phase I and phase II metabolism. In all cases, the metabolic stability of test compounds was determined by monitoring, via LC/MS/MS, the percent parent compound remaining versus time of incubation in human hepatocytes.
Pooled human hepatocytes (catalog number HMCS10, ThermoFischer Scientific) were thawed according to the manufacturers instructions. Thawed hepatocytes were washed by centrifugation and replated in Williams' Medium E supplemented with Heptocyte Plating Supplement Pack, Serum-containing.
Cells were diluted to 1,000,000 per ml in maintenance media (Williams' E Media supplemented with Hepatocyte Maintenance Supplement Pack, Serum-free). 500 μl of cell suspension was added to each well of a microtiter plate containing 500 μl of the deuterated test agent and placed on an orbital shaker at 120 rpm at 37 C. At the appropriate time point 50 μl aliquots were removed from the well and added to 50 μl of ice cold ethyl acetate and vortexed for 5 min and froze until chromatography analysis.

Where [4] appears, read: 200 mg/kg once daily gavage, 2 weeks.

The structures appear in SMILES notation.

`[2H]C([2H])(CN)SSC([2H])([2H])CN` [D4-Cystamine, 2,2′-disulfanediylbis(ethan-2,2-d2-1-aminium) chloride]: the “ALT versus untreated control group” value in data set [1] (setting [4]) was “significantly lower”. For the same compound, the “Ratio of body weight to liver weight (BW/LW) at end of study versus control” value in data set [1] (setting [4]) is “statistically significant”. The “Hepatic fibrosis, Sirius Red staining of liver sections” value is listed as “significant reduction in the amount of positive liver staining” in data set [1] (200 mg/kg once daily gavage, 2 weeks, listed as D4) and “very significant reduction in hepatic fibrosis” in data set [1] (200 mg/kg once daily gavage, 2 weeks, listed as cystamine D4). The “Number of CD11b positive cells in liver tissue versus control group” value in data set [1] (200 mg/kg/day once daily gavage, 2 weeks) is recorded as “statistically significant reduction”. For the same compound, the “Fatty deposits / fat globules in liver, H&E staining” value was “reduction in fatty globules” in data set [1] (2 weeks) and “reduced fatty deposits compared to control” in data set [1] (2 weeks, listed as D4). Moreover, the “Pericentral fibrosis in liver” value in data set [1] (Sirius Red staining, 2 weeks) was “less pericentral fibrosis”. Besides, in data set [1] (liver, 2 weeks of treatment), the “Collagen 1 expression, qPCR, versus control” value is recorded as “significant reduction”. In addition, the “AUC relative to non-deuterated cystamine” value in data set [2] is reported as “at least 1.6 ×”. Also, in data set [2], the “Cmax relative to non-deuterated cystamine” value was roughly 2 ×. Also, in data set [2] (vs cystamine derived cysteamine), the “AUC of derived monomer, comparison in words” value is “much higher”. In data set [3], the “ALT levels at 8 weeks versus control group” value is “not between the control group and D4”. Moreover, the figures for the “Rate of hepatocyte elimination / stability, comparison in words” value in the data set on Pooled human hepatocytes and in the data set with Pooled human hepatocytes (listed as D4 cystamine) were “most stable of the dimeric compounds” and “slower rate than D2 or non-deuterated cystamine”, respectively.

The record behind these values is patent US12391643B2, “Substituted amino-thiol and amino-disulfide compounds, and uses thereof” (The Regents of the University of California, priority 2019, dated 2025).
